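Abbreviation: GI50, concentration required for 50% inhibition of growth. TGI is the concentration that stops growth completely.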
How the values were obtained:
Test in all cases: growth of human tumour cells (NCI), 384-well format
[1] = tested on: 786-0 renal
[2] = tested on: A498 renal
[3] = tested on: A549 NSCLC
[4] = tested on: ACHN renal
[5] = tested on: BT-549 breast
[6] = tested on: CAKI-1 renal
[7] = tested on: CCRF-CEM leukemia
[8] = tested on: COLO 205 colon
[9] = tested on: DU-145 prostate
[10] = tested on: EKVX NSCLC
[11] = tested on: HCC-2998 colon
[12] = tested on: HCT-116 colon
[13] = tested on: HCT-15 colon
[14] = tested on: HL-60(TB) leukemia
[15] = tested on: HOP-62 NSCLC
[16] = tested on: HOP-92 NSCLC
[17] = tested on: HS 578T breast
[18] = tested on: HT29 colon
[19] = tested on: IGROV1 ovarian
[20] = tested on: K-562 leukemia
[21] = tested on: KM12 colon
[22] = tested on: LOX IMVI melanoma
[23] = tested on: M14 melanoma
[24] = tested on: MALME-3M melanoma
[25] = tested on: MCF7 breast
[26] = tested on: MDA-MB-231 breast
[27] = tested on: MDA-MB-435 melanoma
[28] = tested on: MDA-MB-468 breast
[29] = tested on: MOLT-4 leukemia
[30] = tested on: NCI-H226 lung
[31] = tested on: NCI-H23 lung
[32] = tested on: NCI-H322M lung
[33] = tested on: NCI-H460 NSCLC
[34] = tested on: NCI-H522 lung
[35] = tested on: NCI/ADR-RES ovarian
[36] = tested on: OVCAR-3 ovarian
[37] = tested on: OVCAR-4 ovarian
[38] = tested on: OVCAR-5 ovarian
[39] = tested on: OVCAR-8 ovarian
[40] = tested on: PC-3 prostate
[41] = tested on: RPMI-8226 leukemia
[42] = tested on: RXF 393 renal
[43] = tested on: SF-268 CNS
[44] = tested on: SF-295 CNS
[45] = tested on: SF-539 CNS
[46] = tested on: SK-MEL-2 melanoma
[47] = tested on: SK-MEL-28 melanoma
[48] = tested on: SK-MEL-5 melanoma
[49] = tested on: SN12C renal
[50] = tested on: SNB-19 CNS
[51] = tested on: SNB-75 CNS
[52] = tested on: SR leukemia
[53] = tested on: SW-620 colon
[54] = tested on: T-47D breast
[55] = tested on: TK-10 renal
[56] = tested on: U251 glioblastoma
[57] = tested on: UACC-257 melanoma
[58] = tested on: UACC-62 melanoma
[59] = tested on: UO-31 renal
[60] = tested on: SK-OV-3 ovarian

CCS(=O)(=O)N1CCN(c2ccc(Nc3ncc(C(N)=O)c(NC4CC4)n3)cc2)CC1
GI50 [1]: 1.6 µM | TGI [1]: 3.41 µM | GI50 [2]: 1.68 µM | TGI [2]: 5.19 µM | GI50 [3]: 1.83 µM | TGI [3]: > 100 µM | GI50 [4]: 4.3 µM | TGI [4]: > 100 µM | GI50 [5]: 1.1 µM | TGI [5]: 2.51 µM | GI50 [6]: 6.05 µM | TGI [6]: > 100 µM | GI50 [7]: 0.366 µM | TGI [7]: 1.27 µM | GI50 [8]: 0.485 µM | TGI [8]: 2.18 µM | GI50 [9]: 2.82 µM | TGI [9]: 18.8 µM | GI50 [10]: 1.92 µM | TGI [10]: 10.2 µM | GI50 [11]: 2.5 µM | TGI [11]: 5.15 µM | GI50 [12]: 3.72 µM | TGI [12]: 91.1 µM | GI50 [13]: 1.58 µM | TGI [13]: 3.27 µM | GI50 [14]: 0.418 µM | TGI [14]: 2.04 µM | GI50 [15]: 1.89 µM | TGI [15]: 5.01 µM | GI50 [16]: 3.72 µM | TGI [16]: 14.9 µM | GI50 [17]: 2.01 µM | TGI [17]: 4.45 µM | GI50 [18]: 4.09 µM | TGI [18]: 56.4 µM | GI50 [19]: 2.82 µM | TGI [19]: 16.3 µM | GI50 [20]: 2.06 µM | TGI [20]: 8.1 µM | GI50 [21]: 0.44 µM | TGI [21]: 12 µM | GI50 [22]: 2.01 µM | TGI [22]: 13.3 µM | GI50 [23]: 0.301 µM | TGI [23]: 3.42 µM | GI50 [24]: 0.539 µM | TGI [24]: 4.14 µM | GI50 [25]: 1.41 µM | TGI [25]: 22.3 µM | GI50 [26]: 2.93 µM | TGI [26]: 33.6 µM | GI50 [27]: 1.63 µM | TGI [27]: 8.98 µM | GI50 [28]: 2.05 µM | TGI [28]: 3.75 µM | GI50 [29]: 0.381 µM | TGI [29]: 1.54 µM | GI50 [30]: 0.633 µM | TGI [30]: 10.6 µM | GI50 [31]: 1.29 µM | TGI [31]: 4.25 µM | GI50 [32]: 1.59 µM | TGI [32]: 3.93 µM | GI50 [33]: 3.17 µM | TGI [33]: 51.7 µM | GI50 [34]: 0.674 µM | TGI [34]: 4.97 µM | GI50 [35]: 7.08 µM | TGI [35]: 28.6 µM | GI50 [36]: 2.61 µM | TGI [36]: 7.63 µM | GI50 [37]: 2.06 µM | TGI [37]: 5.72 µM | GI50 [38]: 4.25 µM | TGI [38]: 18.7 µM | GI50 [39]: 0.371 µM | TGI [39]: 1.4 µM | GI50 [40]: 10.4 µM | TGI [40]: > 100 µM | GI50 [41]: 0.155 µM | TGI [41]: 0.401 µM | GI50 [42]: 1.51 µM | TGI [42]: 3.73 µM | GI50 [43]: 1.9 µM | TGI [43]: 21.5 µM | GI50 [44]: 1.26 µM | TGI [44]: 3.43 µM | GI50 [45]: 1.18 µM | TGI [45]: 2.73 µM | GI50 [46]: 1.87 µM | TGI [46]: 3.89 µM | GI50 [47]: 2.93 µM | TGI [47]: 50.7 µM | GI50 [48]: 1.39 µM | TGI [48]: 4.65 µM | GI50 [49]: 1.76 µM | TGI [49]: 10.2 µM | GI50 [50]: 8.88 µM | TGI [50]: > 100 µM | GI50 [51]: 4.03 µM | TGI [51]: 8.56 µM | GI50 [52]: 0.368 µM | TGI [52]: 1.29 µM | GI50 [53]: 44.9 µM | TGI [53]: > 100 µM | GI50 [54]: 2.23 µM | TGI [54]: 4.43 µM | GI50 [55]: 2.2 µM | TGI [55]: 5.5 µM | GI50 [56]: 6.79 µM | TGI [56]: > 100 µM | GI50 [57]: 10.2 µM | TGI [57]: 63 µM | GI50 [58]: 9.42 µM | TGI [58]: 23.9 µM | GI50 [59]: 2.92 µM | TGI [59]: > 100 µM

C[C@@H](Oc1cc(-c2cnn(C3CCNCC3)c2)cnc1N)c1c(Cl)cc(F)cc1Cl
GI50 [1]: 1.48 µM | TGI [1]: 2.96 µM | GI50 [2]: 1.65 µM | TGI [2]: 3.84 µM | GI50 [3]: 0.86 µM | TGI [3]: 4.42 µM | GI50 [4]: 1.89 µM | TGI [4]: 5.77 µM | GI50 [5]: 1.85 µM | TGI [5]: 3.45 µM | GI50 [6]: 1.35 µM | TGI [6]: 2.98 µM | GI50 [7]: 0.277 µM | TGI [7]: 0.66 µM | GI50 [8]: 0.971 µM | TGI [8]: 2.39 µM | GI50 [9]: 2.09 µM | TGI [9]: 6.25 µM | GI50 [10]: 2.2 µM | TGI [10]: 6.7 µM | GI50 [11]: 2.21 µM | TGI [11]: 4.91 µM | GI50 [12]: 0.728 µM | TGI [12]: 1.97 µM | GI50 [13]: 1.72 µM | TGI [13]: 5.47 µM | GI50 [14]: 0.256 µM | TGI [14]: 0.485 µM | GI50 [15]: 2.16 µM | TGI [15]: 6.37 µM | GI50 [16]: 1.03 µM | TGI [16]: 2.36 µM | GI50 [17]: 1.48 µM | TGI [17]: 3.71 µM | GI50 [18]: 1.02 µM | TGI [18]: 2.3 µM | GI50 [19]: 2.77 µM | TGI [19]: 7.26 µM | GI50 [20]: 0.131 µM | TGI [20]: 0.262 µM | GI50 [21]: 0.0431 µM | TGI [21]: 2.27 µM | GI50 [22]: 1.33 µM | TGI [22]: 2.63 µM | GI50 [23]: 1.49 µM | TGI [23]: 2.83 µM | GI50 [24]: 1.23 µM | TGI [24]: 2.48 µM | GI50 [25]: 0.614 µM | TGI [25]: 1.86 µM | GI50 [26]: 1.55 µM | TGI [26]: 3.49 µM | GI50 [27]: 2.57 µM | TGI [27]: 6.79 µM | GI50 [28]: 0.725 µM | TGI [28]: 1.56 µM | GI50 [29]: 0.196 µM | TGI [29]: 0.377 µM | GI50 [30]: 1.25 µM | TGI [30]: 3.25 µM | GI50 [31]: 0.641 µM | TGI [31]: 2.42 µM | GI50 [32]: 2.88 µM | TGI [32]: 8.37 µM | GI50 [33]: 0.529 µM | TGI [33]: 2.65 µM | GI50 [34]: 3.21 µM | TGI [34]: 7.29 µM | GI50 [35]: 6.36 µM | TGI [35]: 16 µM | GI50 [36]: 2.54 µM | TGI [36]: 6.47 µM | GI50 [37]: 5.81 µM | TGI [37]: 11 µM | GI50 [38]: 2.22 µM | TGI [38]: 6.92 µM | GI50 [39]: 2.03 µM | TGI [39]: 5.41 µM | GI50 [40]: 1.94 µM | TGI [40]: 5.57 µM | GI50 [41]: 1.16 µM | TGI [41]: 2.97 µM | GI50 [42]: 1.94 µM | TGI [42]: 3.61 µM | GI50 [43]: 2.21 µM | TGI [43]: 5.32 µM | GI50 [44]: 1.21 µM | TGI [44]: 4.3 µM | GI50 [45]: 1.7 µM | TGI [45]: 3.65 µM | GI50 [46]: 1.45 µM | TGI [46]: 2.76 µM | GI50 [47]: 1.6 µM | TGI [47]: 3.09 µM | GI50 [48]: 1.39 µM | TGI [48]: 2.7 µM | GI50 [60]: 5.4 µM | TGI [60]: 9.79 µM | GI50 [49]: 2.11 µM | TGI [49]: 8.7 µM | GI50 [50]: 3.87 µM | TGI [50]: 8.61 µM | GI50 [51]: 1.9 µM | TGI [51]: 3.85 µM | GI50 [52]: 0.0423 µM | TGI [52]: 0.0738 µM | GI50 [53]: 1.25 µM | TGI [53]: 4.65 µM | GI50 [54]: 2.19 µM | TGI [54]: 6.11 µM | GI50 [55]: 3.66 µM | TGI [55]: 7.63 µM | GI50 [56]: 2.78 µM | TGI [56]: 7.16 µM | GI50 [57]: 1.67 µM | TGI [57]: 3.04 µM | GI50 [58]: 1.39 µM | TGI [58]: 3.09 µM | GI50 [59]: 2.64 µM | TGI [59]: 6.43 µM

— PubChem BioAssay (NCI)
